In this assay the target is T1, ttUMPK (UMP kinase of Thermus thermophilus HB8) (Thermus thermophilus, UniProt P43891).
T1 construct: gene pyrH; full-length gene in pET-11a (NdeI/BamHI), no tag mentioned; expressed in E. coli BL21(DE3), heat-treated; homohexamer by size exclusion
As to the kind of experiment: X-ray crystal structure, […] Å (second data set, PDB code not given). To be noted: active site, most chains. The assay is classed as binding.

T1 sequence (P43891 whole entry): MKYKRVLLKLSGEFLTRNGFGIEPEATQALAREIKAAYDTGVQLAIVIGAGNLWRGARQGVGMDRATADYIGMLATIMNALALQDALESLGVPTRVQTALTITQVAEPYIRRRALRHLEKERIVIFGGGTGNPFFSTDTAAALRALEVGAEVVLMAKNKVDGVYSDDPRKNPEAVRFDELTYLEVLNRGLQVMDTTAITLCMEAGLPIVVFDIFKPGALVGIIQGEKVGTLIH

Consider `O=c1ccn([C@@H]2O[C@H](COP(=O)(O)O)[C@@H](O)[C@H]2O)c(=O)[nH]1` [UMP], for which the “X-ray crystal structure, 2.5 Å (second data set, PDB code not given)” value is given as “most of the bound uridine nucleotides in the active site are UMP, not UDP”.
